Assay results: patent US9315811B2, “Methods for modulating kallikrein (KLKB1) expression” (Ionis Pharmaceuticals, Inc., priority 2011, dated 2016)
Oligonucleotides are written 5' to 3', each unit as a sugar letter and its base; * is a phosphorothioate linkage, no mark a phosphodiester; rarer units and linkages stand in square brackets, end groups in braces. Plain capitals give the bases only. e = 2'-O-(2-methoxyethyl) (MOE); [5mC] = 5-methylcytosine; d = 2'-deoxy (DNA)

Legend:
Kallikrein mRNA [1] = experiment: Liver RT-PCR analysis of kallikrein mRNA (Example 9); type: in vivo, mouse; conditions: for Percent inhibition of kallikrein mRNA expression compared to the untreated PBS control: all groups ISIS 461756 12.5 mg/kg twice a week, ASO 40 mg/kg or PBS s.c. twice a week 3 weeks
Description: (§1) One group of 8 mice was treated with 40 mg/kg ISIS 482584 administered subcutaneously twice a week for 3 weeks (weekly dose of 80 mg/kg). A second group of 8 mice was treated with 40 mg/kg of the control oligonucleotide, ISIS 141923, administered subcutaneously twice a week for 3 weeks (weekly dose of 80 mg/kg). A third group of 8 mice was treated with PBS administered subcutaneously twice a week for 3 weeks. On day 14, all the groups were treated with 12.5 mg/kg ISIS 461756 administered subcutaneously twice a week for 3 weeks (weekly dose of 25 mg/kg). A control group of mice was treated with PBS administered subcutaneously twice a week for 3 weeks but was not administered ISIS 461756.
(§2) At the end of the treatment period, all the groups were injected with 30 mg/kg of Evans Blue solution into the tail vein. The mice were sacrificed 30 min after the Evans Blue solution administration and colons, feet, ears, and intestines were harvested. The liver was also harvested for RNA analysis.
RNA was isolated from the liver for RT-PCR analysis of C1-INH and kallikrein mRNAs. The primer probe set for C1-INH is RTS3218 (forward sequence […], designated herein as SEQ ID NO: 24; reverse sequence […], designated herein as SEQ ID NO: 25; probe sequence […], designated herein as SEQ ID NO: 26). The primer probe set for kallikrein is RTS3287 (forward sequence […], designated herein as SEQ ID NO: 27; reverse sequence […], designated herein as SEQ ID NO: 28; probe sequence […], designated herein as SEQ ID NO: 29). The results are presented in Table 20 as percent inhibition compared to the PBS control not treated with ISIS 461756.

C1-INH mRNA = experiment: Liver RT-PCR analysis of C1-INH mRNA (Example 9); type: in vivo, mouse
Description: as §1, §2
RNA was isolated from the liver for RT-PCR analysis of C1-INH and kallikrein mRNAs. The primer probe set for C1-INH is RTS3218 (forward sequence […], designated herein as SEQ ID NO: 24; reverse sequence […], designated herein as SEQ ID NO: 25; probe sequence […], designated herein as SEQ ID NO: 26). […]

mice = experiment: Evans Blue vascular permeability induced by ISIS 461756 (Example 9); conditions: mouse, in vivo
Description: Vascular permeability induced by ISIS 461756, an antisense oligonucleotide which targets murine C1 inhibitor mRNA, increases vascular permeability in mice and replicates the pathology of hereditary angioedema. The effect of ISIS 482584 on this model was evaluated.
as §1
At the end of the treatment period, all the groups were injected with 30 mg/kg of Evans Blue solution into the tail vein. […]
The harvested tissues from the feet, colon, and intestines were placed in formamide solution overnight to leach out the Evans Blue dye. […] The color intensity of the dye-infused formamide solution was then measured at OD600nm. […]

[2] = test system: high molecular weight kininogen (HMWK); experiment: Western blot quantification of HMWK and HMWK cleavage product by densitometer (Example 5); type: in vivo, mouse; conditions: vs PBS control, dose-dependent
Description: All the groups were then injected with 30 mg/kg of Evans Blue solution in the tail vein. The mice were sacrificed 30 min after the Evans Blue solution administration and colons, feet, and ears were harvested and examined for permeability defects. Blood samples were taken through cardiac puncture.
Treatment with kallikrein antisense oligonucleotide results in stabilization of HMWK. Thus, vascular permeability is reduced in ISIS 482584-treated groups in a dose-dependent manner. […] Thus, reduced HMWK is caused by kallikrein cleavage of HMWK into cleavage products (including bradykinin and HKa). Data are presented in Intensity Units as measured by densitometer.

Kallikrein mRNA [3] = experiment: Kallikrein mRNA and protein expression in mice after subcutaneous ASO (Example 1); type: in vivo, mouse; conditions: 3 weeks
Description: C57BL/6J-Tyrc-2J mice were treated with 2.5 mg/kg, 5.0 mg.kg, 10.0 mg/kg, 20.0 mg/kg, 40.0 mg/kg, or 80.0 mg/kg (corresponding to 5.0 mg/kg, 10.0 mg/kg, 20.0 mg/kg, 40 mg/kg, 80 mg/kg, or 160 mg/kg per week) of ISIS 482584 administered subcutaneously twice a week for 3 weeks. […] Kallikrein mRNA was reduced by greater than 90% inhibition at a dose of 160 mg/kg per week.

mouse kallikrein mRNA = experiment: Antisense inhibition of murine kallikrein mRNA in mouse primary hepatocytes (Example 1); type: cell-based
Description: Antisense oligonucleotides targeting a murine kallikrein nucleic acid were tested for their effects on kallikrein mRNA in vitro. Cultured mouse primary hepatocytes at a density of 10,000 cells per well were transfected using Cytofectin reagent with 12.5 nM, 25 nM, 50 nM, 100 nM, or 200 nM of antisense oligonucleotide. After a treatment period of approximately 24 hours, RNA was isolated from the cells and mouse kallikrein mRNA levels were measured by quantitative real-time PCR using the murine primer probe set RTS3313 (forward sequence […], designated herein as SEQ ID NO: 21; reverse sequence […], designated herein as SEQ ID NO: 22; probe sequence […], designated herein as SEQ ID NO: 23). Kallikrein mRNA levels were adjusted according to total RNA content, as measured by RIBOGREEN.
The chimeric antisense oligonucleotides were designed as 5-10-5 MOE gapmers. The gapmers are 20 nucleotides in length, wherein the central gap segment is comprised of ten 2′-deoxynucleosides and is flanked on both sides (in the 5′ and 3′ directions) by wings comprising five nucleosides each. Each nucleoside in the 5′ wing segment and each nucleoside in the 3′ wing segment has a 2′-MOE modification. The internucleoside linkages throughout each gapmer are phosphorothioate (P═S) linkages. All cytosine residues throughout each gapmer are 5-methylcytosines.
ISIS 482584 ([…]; incorporated herein as SEQ ID NO: 40), which was one of the antisense oligonucleotides tested in the assay, is targeted to SEQ ID NO: 11 (GENBANK Accession No. NM_008455.2) with a target start site of 1586 and a target stop site of 1605.

Substance	Percent inhibition of kallikrein mRNA expression compared to the untreated PBS control (Kallikrein mRNA [1])	C1-INH mRNA expression (C1-INH mRNA)	vascular permeability induced by ISIS 461756 (mice)	HMWK levels [2]	Kallikrein mRNA inhibition (Kallikrein mRNA [3]; 160 mg/kg per week s.c.)	Kallikrein mRNA and protein expression (Kallikrein mRNA [3]; 5.0-160 mg/kg per week s.c.)	% inhibition (mouse kallikrein mRNA; 12.5 nM)	% inhibition (mouse kallikrein mRNA; 25.0 nM)	% inhibition (mouse kallikrein mRNA; 50.0 nM)	% inhibition (mouse kallikrein mRNA; 100.0 nM)	% inhibition (mouse kallikrein mRNA; 200.0 nM)	kallikrein expression (Kallikrein mRNA [1])
ISIS 141923: control oligonucleotide, a 5-10-5 MOE gapmer with no known murine target; CCTTCCCTGAAGGTTCCTCC (SEQ ID NO: 42) (sugars from the 5' end e5 d10 e5, backbone and methylation of C not given here) [reference compound]	0%											
ISIS 461756: 5-10-5 MOE gapmer antisense oligonucleotide which targets murine C1 inhibitor mRNA; AAAGTGGTTGATACCCTGGG (SEQ ID NO: 41) (sugars from the 5' end e5 d10 e5, backbone and methylation of C not given here) [reference compound]	0%	significantly reduced										
ISIS 482584: 5-10-5 MOE gapmer antisense oligonucleotide targeting murine kallikrein; GGCATATTGGTTTTTGGAAT (SEQ ID NO: 40) (antisense eG*eG*e[5mC]*eA*eT*dA*dT*dT*dG*dG*dT*dT*dT*dT*dT*eG*eG*eA*eA*eT)	78%		prevented vascular permeability	higher levels of HMWK	greater than 90%	reduced in a dose dependent manner	0%	36%	17%	60%	83%	significantly reduced
